{"source": "patent US20050106168A1", "about": "“Methods and compositions for treating nephrotic syndrome” (priority 2003, published 2005)", "key": {"[1]": {"system": "Wistar rats showing proteinuria", "test": "Effect of treatment on proteinuria (urinary protein by sulfosalicylic acid turbidimetry) in BSA-injected rats", "type": "in vivo, rat", "details": "BSA 350 mg/kg i.v., intragastric twice daily, yeast compositions 1.0 ml/100 g, pednisone 0.25 mg/100 g", "experimental": "(§1) The activated yeast compositions used in the following examples were prepared as described above, using Saccharomyces cerevisiae Hansen AS2.502, cultured in the presence of an alternating electric field having the electric field frequency and field strength exemplified in the parentheses following the recommended ranges listed in Section IV, supra. Control (i.e., untreated) yeast compositions were those prepared in the same manner as described in Section VI, supra, except that the yeast cells were cultured in the absence of EMFs. Unless otherwise specified, all compositions of interest were administered to the animals by intragastric feeding.\nTo test the ability of the activated yeast compositions to reduce the level of urinary protein, sixty healthy Wistar rats with average weight of about 200-220 g (4-7 months old, half of them male and the other half female) were chosen and males and females were kept in separate cages. […] Urine samples were collected from the fine cancellated base of metabolic cages, and the amount of protein in the samples was determined by […]. […]\nThe amount of urinary protein was determined by sulfosalicylic acid turbidimetry. The volume of each urine sample was first measured (ml). […] Ten minutes later, the absorption of the sample test tube was measured at 620 nm against the control tube. […]"}, "[2]": {"system": "Wistar rats showing proteinuria", "test": "Effect of treatment on serum protein (biuret method) in BSA-injected rats", "type": "in vivo, rat", "details": "Wistar rats prepared as in Example 1; intragastric twice daily for six weeks; yeast compositions 1.0 ml/100 g, pednisone 0.2 mg/100 g", "experimental": "as §1, with “feeding. […]” for “feeding.”\nSubsequently, a composition of interest was administered twice daily to each of the four groups of rats for six weeks. […] The amount of protein in the supernatant (serum protein) was determined.\nTo determine the amount of serum protein, 50 μl of the supernatant and standard serum protein were added into two separate tubes. […] The mixtures were placed in water bath at 37° C. for 10 minutes and measured for absorption at 546 nm. The concentration of serum protein was calculated according to the following formula: [Serum Protein]=[absorption for the testing sample/absorption for the standard]×[standard serum protein](g/dl)."}}, "data": [{"compound": "C[C@]12C=CC(=O)C=C1CC[C@@H]1[C@@H]2C(=O)C[C@@]2(C)[C@H]1CC[C@]2(O)C(=O)CO", "note": "[Pednisone, pednisone (metacortandiacin)]", "values": [{"measurement": "Urinary Protein (mg in 100 ml urine sample) in a 24-hour Period, 8-Week Treatment", "setting": "[1]; last day of eighth week", "value": "4.22 ± 1.34", "unit": "mg in 100 ml urine sample"}, {"measurement": "Urinary Protein (mg in 100 ml urine sample) in a 24-hour Period, 4-Week Treatment", "setting": "[1]; last day of fourth week", "value": "4.57 ± 1.42", "unit": "mg in 100 ml urine sample"}, {"measurement": "Serum Protein", "setting": "[2]", "value": "6.41 ± 3.32", "unit": "g/dL"}]}]}
